Source: patent US20200109126A1 (priority 2017, published 2020)
Entries after “also recorded” stand apart in the source; their conditions may differ.

Experiments:
κOR [1] = target: T1, κOR (Homo sapiens, UniProt P41145); experiment: Radioligand binding at κOR (PDSP); settings: Ki (nM) κOR
T1 construct: NIMH Psychoactive Drug Screening Program (PDSP)

δOR = target: T2, δOR (Homo sapiens, UniProt P41143); experiment: Radioligand binding at δOR (PDSP)
T2 construct: NIMH Psychoactive Drug Screening Program (PDSP)
T2 sequence (P41143 whole entry): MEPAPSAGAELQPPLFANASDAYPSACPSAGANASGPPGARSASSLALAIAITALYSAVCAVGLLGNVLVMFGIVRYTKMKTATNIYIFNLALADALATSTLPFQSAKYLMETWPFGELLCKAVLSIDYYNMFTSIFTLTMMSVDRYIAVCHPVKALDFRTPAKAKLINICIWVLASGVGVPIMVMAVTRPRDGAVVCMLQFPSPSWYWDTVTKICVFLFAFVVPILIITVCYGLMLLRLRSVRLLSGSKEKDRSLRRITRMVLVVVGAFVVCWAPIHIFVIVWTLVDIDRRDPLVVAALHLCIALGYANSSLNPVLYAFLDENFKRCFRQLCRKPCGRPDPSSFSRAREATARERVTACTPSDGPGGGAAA

μOR [2] = target: T3, μOR (Homo sapiens, UniProt P35372); experiment: cell-based; type: cell-based
T3 sequence (P35372 whole entry): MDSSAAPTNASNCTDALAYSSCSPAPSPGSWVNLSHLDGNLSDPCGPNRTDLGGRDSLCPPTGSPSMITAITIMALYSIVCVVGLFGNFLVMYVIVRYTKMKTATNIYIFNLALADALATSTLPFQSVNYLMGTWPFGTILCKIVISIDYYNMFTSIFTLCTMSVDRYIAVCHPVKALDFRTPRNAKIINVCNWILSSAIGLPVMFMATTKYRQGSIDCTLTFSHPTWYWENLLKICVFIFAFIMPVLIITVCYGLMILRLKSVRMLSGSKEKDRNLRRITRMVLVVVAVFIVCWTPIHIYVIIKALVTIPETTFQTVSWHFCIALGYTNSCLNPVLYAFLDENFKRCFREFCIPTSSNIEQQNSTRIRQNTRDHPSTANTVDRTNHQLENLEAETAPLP

κOR [3] = target: T1, κOR; experiment: Gi/o Glosensor assay at κOR; type: cell-based
nociceptin receptor = target: T4, nociceptin receptor (Homo sapiens, UniProt P41146); experiment: Gi/o Glosensor assay at nociceptin receptor; type: cell-based
T4 construct: NIMH Psychoactive Drug Screening Program (PDSP)
T4 sequence (P41146 whole entry): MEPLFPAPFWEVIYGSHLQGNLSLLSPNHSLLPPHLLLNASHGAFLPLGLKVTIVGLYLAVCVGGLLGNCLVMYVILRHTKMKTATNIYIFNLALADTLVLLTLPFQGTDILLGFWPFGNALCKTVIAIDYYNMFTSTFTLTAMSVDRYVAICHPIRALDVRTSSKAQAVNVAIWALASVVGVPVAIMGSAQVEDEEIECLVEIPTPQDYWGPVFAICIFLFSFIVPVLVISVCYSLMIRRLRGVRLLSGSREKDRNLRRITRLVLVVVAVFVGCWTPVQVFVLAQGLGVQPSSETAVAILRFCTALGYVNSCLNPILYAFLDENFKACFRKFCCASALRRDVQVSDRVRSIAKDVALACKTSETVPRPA

μOR [4] = target: T3, μOR; experiment: β-arrestin2 recruitment, PathHunter assay; type: cell-based
μOR [5] = target: T3, μOR; experiment: β-arrestin recruitment at μOR with GRK2 co-expression; type: cell-based
320 non-olfactory GPCRs = experiment: PRESTO-Tango GPCRome β-arrestin recruitment screen for off-target agonism; type: cell-based; settings: 10 μM, hits re-tested in full dose-response
Text: Potential positive receptor hits were defined as those that increase the relative luminescence value by two fold. […] A number of false positive hits were discounted by this approach.

μOR [6] = target: T3, μOR; experiment: Receptor internalization (PathHunter GPCR internalization assay); type: cell-based; settings: maximal concentration
[7] = test system: Oprm1−/− and wild-type C57Bl/6J mice; experiment: Hot plate in μOR knockout mice and subcategorization of affective/reflexive pain; type: in vivo, mouse
Description: Analgesia in μOR knockout mice and subcategorization of affective/reflexive pain: Oprm1−/− and wild-type C57Bl/6J mice (male; 8-11 weeks) were acclimated to the testing environment and thermal-plate equipment for three non-consecutive days between 11 A.M. and 1 P.M. prior to any pharmacological studies. Acclimation was achieved by individually confining mice within an enclosed semi-transparent red plastic cylinder (10 cm D×15 cm H) on a raised metal-mesh rack (61 cm H) for 30 minutes, and then exposing each mouse to the thermal-plate equipment (non-heated; floor dimensions, 16.5×16.5 cm; Bioseb), while confined within a clear plastic chamber (16 L×16 W×30H cm). Acclimation exposure to the thermal plate lasted for 30 seconds, and exposure was repeated after 30 minutes to mimic the test day conditions. […] The same experimenter ([…] ) was present throughout the entire duration of habituation and testing to exclude possible olfaction-induced alterations in sensory thresholds.
Cutaneous application of a noxious stimulus, or time spent on a hot plate apparatus can broadly elicit several distinct behavioral responses: 1. Withdrawal reflexes: rapid reflexive retraction or digit splaying of the paw, 2. […] Paw withdrawal reflexes are classically measured in studies of hypersensitivity, and involve simple spinal cord and brainstem circuits. […]

C57BL/6J mice [8] = experiment: Conditioned place preference; settings: mouse, in vivo
Description: On day 1 (preconditioning day), mice were placed in the central chamber and allowed to explore freely for 30 minutes. Time spent in each compartment was used to estimate baseline chamber preferences and mice showing specific chamber bias more than 70% were not studied further. On days 2-9 (conditioning days) mice were injected with either vehicle or drug and paired with either the white mesh or the black rod chambers. All mice received vehicle on days 2, 4, 6, 8 and drug on days 3, 5, 7, 9. On day 10 (test day), mice were again placed in the central chamber as on day 1 and allowed to explore freely for 30 minutes. Time spent in each chamber was expressed as percentage preference.

[9] = Pharmacokinetics of PZM21 (serum and brain); type: in vivo, mouse; settings: 20 mg/kg subcutaneous
Description: Studies were performed by the Preclinical Therapeutics Core and the Drug Studies Unit at the University of California San Francisco.

C57BL/6J mice [10] = experiment: Tail-flick assay; settings: mouse, in vivo
C57BL/6J mice [11] = experiment: Hot-plate analgesia
C57BL/6J mice [12] = experiment: Cataleptic effect (bar test); settings: PZM21 20 mg/kg
Description: Drug induced catalepsy was measured in mice using the bar test, which includes a horizontally placed 3 mm diameter wooden bar fixed 4 cm above the floor. […] To measure catalepsy, both forepaws were gently placed on the bar and the length of time during which each mouse remained in the initial position was measured. The effect was measured at 15, 30 and 90 minutes after drug injection. Maximum cut-off time for each challenge was 90 seconds.

C57BL/6J mice [13] = experiment: Open field locomotor response; settings: PZM21 20 mg/kg, morphine 10 mg/kg
C57BL/6J mice [14] = experiment: Accumulated fecal boli quantification (constipation); settings: PZM21 20 mg/kg, morphine 10 mg/kg
μOR [15] = target: T3, μOR; experiment: biochemical; type: binding; parameters: expressed in transfected cells; host or cells: HEK293 membranes (Ki); Sf9 insect cell membranes (single-point screen); PDSP for analogs
Description: For a primary screen of selected molecules, binding to OR was assessed by measuring competition against the radioligand ^3H-diprenorphine (^3H-DPN). […] The reaction contained 40 fmol of μOR and was incubated in a buffer of 20 mM HEPES pH 7.5, 100 mM sodium chloride, and 0.1% bovine serum albumin for 1 hour at 25° C. To separate free from bound radioligand, reactions were rapidly filtered over Whatman GF/B filters with the aid of a Brandel harvester and ^3H-DPN counts were measured by liquid scintillation.

T1 sequence (P41145 whole entry): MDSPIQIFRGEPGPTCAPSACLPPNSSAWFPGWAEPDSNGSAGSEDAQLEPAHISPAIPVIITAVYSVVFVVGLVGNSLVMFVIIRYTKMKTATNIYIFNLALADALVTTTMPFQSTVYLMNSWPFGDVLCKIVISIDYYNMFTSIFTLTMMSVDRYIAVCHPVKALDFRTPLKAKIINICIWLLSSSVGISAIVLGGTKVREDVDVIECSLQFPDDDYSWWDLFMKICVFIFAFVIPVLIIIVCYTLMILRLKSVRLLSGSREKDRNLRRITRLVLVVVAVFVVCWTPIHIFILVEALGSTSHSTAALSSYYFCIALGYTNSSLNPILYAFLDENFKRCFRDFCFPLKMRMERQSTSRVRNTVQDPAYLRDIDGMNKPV

SMILES: C[C@@H](Cc1ccsc1)NC(=O)NC[C@H](Cc1ccc(O)cc1)N(C)C [PZM21, 1-[(S)-2-(Dimethylamino)-3-(4-hydroxyphenyl)propyl]-3-((S)-1-(thiophen-3-yl)propan-2-yl)urea]
- Ki (κOR [1]): 18 nM
- Ki (δOR): 506 nM
- Gi/o activation, μOR agonist activity (in words) (μOR [2]): robust μOR agonist activity
- KOR agonist activity (in words) (κOR [3]): no detectable
- mode of action at KOR (κOR [3]; antagonist mode): antagonist
- nociceptin receptor agonist activity (in words) (nociceptin receptor): no detectable
- β-arrestin2 recruitment (in words) (μOR [4]): undetectable; also recorded: minimal recruitment of β-arrestin2; also recorded: no detectable
- arrestin recruitment with over-expressed GRK2 (in words) (μOR [5]): weak arrestin recruitment efficacy compared to DAMGO and even to morphine
- signaling bias (μOR [5]; operational model, DAMGO as reference): undistinguishable from TRV130
- agonism against 316 other GPCRs (320 non-olfactory GPCRs): no potent activity was confirmed
- μOR internalization (μOR [6]): minimal level of μOR internalization compared to DAMGO and morphine
- affective versus reflexive component of pain ([7]; hot plate 52.5° C., PZM21 20 mg/kg, 20 mg/kg): only modulates the affective component of pain; also recorded: solely confers analgesia to the affective component of pain
- analgesic response in μOR knockout mice ([7]; hot-plate assay): completely ablates the observed analgesic response
- conditioned place preference (C57BL/6J mice [8]): does not induce a conditioned place preference response
- blood brain barrier penetration [9]: substantial fraction of PZM21 crosses the blood brain barrier
- analgesic effect in tail-flick assay (C57BL/6J mice [10]): no activity; also recorded: no analgesic effect
- duration of analgesia (C57BL/6J mice [11]; hot plate): up to 180 minutes
- percent maximal possible effect (% MPE) (C57BL/6J mice [11]; hot plate, highest dose of drug tested, 15 minutes after administration): 87%
- analgesia in hot-plate assay (in words) (C57BL/6J mice [11]; mouse, subcutaneous): dose-dependent analgesia
- cataleptic behavior (C57BL/6J mice [12]): does not induce cataleptic behavior
- open field locomotion (C57BL/6J mice [13]): does not induce open field locomotion; also recorded: no apparent effect on locomotion versus vehicle
- constipation effect (C57BL/6J mice [14]): reduced constipatory effects as compared to morphine; also recorded: substantially less than morphine
- optimization from initial docking hit compound 7 (μOR [15]): 1000 fold
- improvement versus 12 (μOR [15]; Ki and EC50 of (S,S)-21 against compound 12): 40 fold
